Source: PubChem BioAssay AID248 (DTP/NCI, 2004)
Where “and” joins values, the source holds several entries; their conditions need not be identical. Equal values may be shown once. Inconclusive results and toxic doses are left out. Rule as the data show it: active = T/C of 150% or more; inactive = T/C below 125%.

System: L1210 leukemia ip in BDF1 mice, survival T/C
Assay: NCI In Vivo Anticancer Drug Screen. Data for tumor model L1210 Leukemia (intraperitoneal) in B6D2F1 (BDF1) mice
Details: endpoint: mean survival time, higher = longer survival
Outline: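 Each compound was tested against a transplantable tumor grown in mice. The endpoint was survival, with treated animals benchmarked against vehicle controls as a simple ratio.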

[1] = dose: 100.0 mg/kg/injection, schedule: Q01DX001 (ip), vehicle: saline
[2] = dose: 200.0 mg/kg/injection, schedule: Q01DX001 (ip), vehicle: saline
[3] = dose: 400.0 mg/kg/injection, schedule: Q01DX001 (ip), vehicle: saline
[4] = dose: 100.0 mg/kg/injection, schedule: Q01DX009 (ip), vehicle: saline
[5] = dose: 100.0 mg/kg/injection, schedule: Q04DX003 (ip), vehicle: saline
[6] = dose: 200.0 mg/kg/injection, schedule: Q01DX009 (ip), vehicle: saline
[7] = dose: 200.0 mg/kg/injection, schedule: Q04DX003 (ip), vehicle: saline
[8] = dose: 400.0 mg/kg/injection, schedule: Q01DX009 (ip), vehicle: saline
[9] = dose: 400.0 mg/kg/injection, schedule: Q04DX003 (ip), vehicle: saline

Measured: T/C

O=C(Nc1ccc(C(=O)Nc2nccs2)cc1)c1ccc(C(=O)Nc2ccc(C(=O)Nc3nccs3)cc2)c(Cl)c1
inactive: dose: 4.4 mg/kg/injection, schedule: Q01DX Z (ip), vehicle: saline 106 % of control | dose: 6.6 mg/kg/injection, schedule: Q01DX Z (ip), vehicle: saline 97 % of control | dose: 10.0 mg/kg/injection, schedule: Q01DX Z (ip), vehicle: saline 97 % of control | dose: 15.0 mg/kg/injection, schedule: Q01DX Z (ip), vehicle: saline 93 % of control and 97 % of control and 106 % of control | dose: 22.5 mg/kg/injection, schedule: Q01DX Z (ip), vehicle: saline 104 % of control | dose: 30.0 mg/kg/injection, schedule: Q01DX Z (ip), vehicle: saline 100 % of control | dose: 33.75 mg/kg/injection, schedule: Q01DX Z (ip), vehicle: saline 111 % of control | dose: 50.6 mg/kg/injection, schedule: Q01DX Z (ip), vehicle: saline 93 % of control | dose: 60.0 mg/kg/injection, schedule: Q01DX Z (ip), vehicle: saline 97 % of control | dose: 120.0 mg/kg/injection, schedule: Q01DX Z (ip), vehicle: saline 98 % of control and 100 % of control | dose: 180.0 mg/kg/injection, schedule: Q01DX Z (ip), vehicle: saline 93 % of control | dose: 270.0 mg/kg/injection, schedule: Q01DX Z (ip), vehicle: saline 92 % of control | dose: 400.0 mg/kg/injection, schedule: Q01DX Z (ip), vehicle: saline 93 % of control

CSc1ccc(C(=O)C(CO)NC(C)=O)cc1 (centres undefined)
inactive: [1] 110 % of control | [2] 98 % of control | [3] 97 % of control

C=CCNC(=O)c1ccccc1OCC(=O)O
inactive: dose: 100.0 mg/kg/injection, schedule: Q01DX009 (ip), vehicle: gum acacia 93 % of control | dose: 100.0 mg/kg/injection, schedule: Q04DX003 (ip), vehicle: gum acacia 103 % of control | dose: 200.0 mg/kg/injection, schedule: Q01DX009 (ip), vehicle: gum acacia 88 % of control | dose: 200.0 mg/kg/injection, schedule: Q04DX003 (ip), vehicle: gum acacia 100 % of control | dose: 400.0 mg/kg/injection, schedule: Q01DX009 (ip), vehicle: gum acacia 94 % of control | dose: 400.0 mg/kg/injection, schedule: Q04DX003 (ip), vehicle: gum acacia 97 % of control

CC1COCC(C)N1C(=O)c1cccnc1 (centres undefined)
inactive: [1] 99 % of control | [4] 101 % of control and 103 % of control | dose: 100.0 mg/kg/injection, schedule: Q04DX002 (ip), vehicle: saline 96 % of control and 100 % of control | [5] 100 % of control | [2] 99 % of control | [6] 113 % of control and 114 % of control | dose: 200.0 mg/kg/injection, schedule: Q04DX002 (ip), vehicle: saline 107 % of control and 110 % of control | [7] 105 % of control | [3] 101 % of control | [8] 103 % of control | dose: 400.0 mg/kg/injection, schedule: Q04DX002 (ip), vehicle: saline 105 % of control and 110 % of control | [9] 105 % of control

CC(C)CC(C)OC(=O)CCl (centres undefined)
inactive: [5] 107 % of control | [7] 105 % of control | [9] 88 % of control

C/C(=C\Cl)CN1C(=O)c2ccccc2C1=O
inactive: [4] 93 % of control | [5] 97 % of control | [6] 113 % of control | [7] 101 % of control | [8] 102 % of control | [9] 105 % of control

NC(=O)c1ccc(N)nc1
inactive: dose: 22.0 mg/kg/injection, schedule: Q01DX001 (ip), vehicle: carboxymethylcellulose (CMC) 104 % of control and 106 % of control | dose: 25.0 mg/kg/injection, schedule: Q01DX001 (ip), vehicle: carboxymethylcellulose (CMC) 106 % of control | dose: 33.0 mg/kg/injection, schedule: Q01DX001 (ip), vehicle: carboxymethylcellulose (CMC) 109 % of control and 114 % of control | dose: 50.0 mg/kg/injection, schedule: Q01DX001 (ip), vehicle: carboxymethylcellulose (CMC) 111 % of control and 112 % of control | dose: 75.0 mg/kg/injection, schedule: Q01DX001 (ip), vehicle: carboxymethylcellulose (CMC) 109 % of control and 90 % of control | dose: 100.0 mg/kg/injection, schedule: Q01DX001 (ip), vehicle: carboxymethylcellulose (CMC) 95 % of control
